Experimental data reported in US6291461A, “Stephacidin antitumor antibiotics” (Bristol-Myers Squibb Company, priority 1999, dated 2001).

Experiments:
A2780 ovarian, parental = experiment: In vitro cytotoxicity (MTS assay), A2780; format: cell-based; conditions: Homo sapiens, A2780, 72 h
Description: (§1) In vitro cytotoxicity was assessed in human carcinoma cells by the MTS (3-(4,5-dimethylthiazol-2-yl)-5-(3-carboxymethoxyphenyl)-2-(4-sulphenyl)-2H-tetrazolium, inner salt) assay (5). Cells were plated at 4,000 cell/well in 96 well microtiter plates and 24 hours later drugs were added and serial diluted. The cells were incubated at 37° form 72 hours at which time the tetrazolium dye, MTS at 333 μg/ml (final concentration),in combination with the electron coupling agent phenazine methosulfate at 25 μM (final concentration) was added. A dehydrogenase enzyme in live cells reduces the MTS to a form that absorbs light at 492 nm which can be quantitated spectrophotometrically. The greater the absorbance the greater the number of live cells. The results are expressed as an IC50, which is the drug concentration required to inhibit cell proliferation (i.e. absorbance at 492 nm) to 50% of that of untreated control cells.

[1] = test system: A2780/DDP ovarian, mutp53/bcl2+; experiment: In vitro cytotoxicity (MTS assay), A2780/DDP; format: cell-based; conditions: Homo sapiens, 72 h
Description: as §1

[2] = test system: A2780/Tax ovarian, Taxol resistant; experiment: In vitro cytotoxicity (MTS assay), A2780/Tax; format: cell-based; conditions: Homo sapiens, 72 h
Description: as §1

[3] = test system: PC3 prostate, testosterone independent; experiment: In vitro cytotoxicity (MTS assay), PC3; format: cell-based; conditions: Homo sapiens; PC3, 72 h
Description: as §1

[4] = test system: LNCaP prostate, testosterone sensitive; experiment: In vitro cytotoxicity (MTS assay), LNCaP; format: cell-based, human; conditions: for IC50: Homo sapiens, LNCaP, 72 h
Description: as §1

HCT116 colon, parental = experiment: In vitro cytotoxicity (MTS assay), HCT116; format: cell-based; conditions: Homo sapiens, HCT-116; HCT116, 72 h
Description: as §1

[5] = test system: HCT116/mdr+ colon, overexpresses Mdr+; experiment: In vitro cytotoxicity (MTS assay), HCT116/mdr+; format: cell-based; conditions: Homo sapiens, HCT-116, 72 h
Description: as §1

[6] = test system: HCT116/Topo colon, resistant to etoposide; experiment: In vitro cytotoxicity (MTS assay), HCT116/Topo; format: cell-based; conditions: Homo sapiens, HCT-116, 72 h
Description: as §1

[7] = test system: MCF-7 breast, estradiol sensitive; experiment: In vitro cytotoxicity (MTS assay), MCF-7; format: cell-based; conditions: Homo sapiens, MCF7; MCF-7, 72 h
Description: as §1

[8] = test system: SKBR3 breast, estradiol-independent; experiment: In vitro cytotoxicity (MTS assay), SKBR3; format: cell-based; conditions: Homo sapiens, SK-BR-3; SKBR3, 72 h
Description: as §1

LX-1 lung, sensitive = experiment: In vitro cytotoxicity (MTS assay), LX-1; format: cell-based; conditions: Homo sapiens; LX-1, 72 h
Description: as §1

LNCaP cells = experiment: Apoptosis determination (TUNEL assay), LNCaP; format: cell-based, human; conditions: for % of LNCaP Cells in Apoptosis: 24 h treatment; for induction of apoptosis: testosterone sensitive (LNCaP) cells
Description: (§2) Cells were plated, incubated overnight, treated with compound for 24 hours then harvested by trypsinization. For cell cycle analysis cells were trypsinized, permeated, stained with 50 ug/ml propidium iodide and analyzed by FACS. For apoptosis evaluation (TUNEL assay) cells were permeated and reacted with TdT and fluoresceinated dUTP for 3 hours following the procedure recommended by the APO-Direct kit (Pharmingen).

A2780 cells = experiment: Apoptosis determination (TUNEL assay), A2780; format: cell-based, human; conditions: for % of A2780 Cells in Apoptosis: 24 h treatment; for induction of apoptosis: (A2780)
Description: as §2

p53, mdr or bcl2 = experiment: Mechanism of action: mediation by p53, mdr or bcl2; format: cell-based
[9] = test system: tubulin or topoisomerase II; experiment: Mechanism of action: tubulin or topoisomerase II
Solubility = format: physicochemical
human tumor cell lines = experiment: In vitro cytotoxicity against several human tumor cell lines; format: cell-based
Description: as §1

**Q.** What does the source list for `CC1(C)C=Cc2c(ccc3c2[N+]([O-])=C2C(C)(C)C4CC56CCCN5C(=O)C4(NC6=O)C4N5C(=O)C67CCCN6C(=O)C56C(C7)C(C)(C)c5c(c7ccc8c(c7n5O)C=CC(C)(C)O8)C6C234)O1` (stereo not shown) [Stephacidin B]?
**A.** IC50 (A2780 ovarian, parental): 0.33 µM; IC50 [1]: 0.43 µM; IC50 [2]: 0.26 µM; IC50 [3]: 0.37 µM; IC50 [4]: 0.06 µM; selectivity in testosterone dependent LNCaP cells ([4]; LNCaP versus other cell lines): Good selectivity; IC50 (HCT116 colon, parental): 0.46 µM; IC50 [5]: 0.46 µM; IC50 [6]: 0.42 µM; IC50 [7]: 0.27 µM; IC50 [8]: 0.32 µM; IC50 (LX-1 lung, sensitive): 0.38 µM; % of LNCaP Cells in Apoptosis (LNCaP cells; 0.1 x 72 hour cytotoxic IC50): 0.02%; % of LNCaP Cells in Apoptosis (LNCaP cells; 1 x 72 hour cytotoxic IC50): 0.00%; % of LNCaP Cells in Apoptosis (LNCaP cells; 5 x 72 hour cytotoxic IC50): 0.05%; % of LNCaP Cells in Apoptosis (LNCaP cells; 10 x 72 hour cytotoxic IC50): 4.52%; % of LNCaP Cells in Apoptosis (LNCaP cells; 20 x 72 hour cytotoxic IC50): 11.13%; induction of apoptosis (LNCaP cells): potent inducers of apoptosis; % of A2780 Cells in Apoptosis (A2780 cells; 0.1 x 72 hour cytotoxic IC50): .5%; % of A2780 Cells in Apoptosis (A2780 cells; 1 x 72 hour cytotoxic IC50): .2%; % of A2780 Cells in Apoptosis (A2780 cells; 5 x 72 hour cytotoxic IC50): 1.0%; % of A2780 Cells in Apoptosis (A2780 cells; 10 x 72 hour cytotoxic IC50): 33%; % of A2780 Cells in Apoptosis (A2780 cells; 20 x 72 hour cytotoxic IC50): 5%; induction of apoptosis (A2780 cells): potent inducers of apoptosis; effects mediated by p53, mdr or bcl2 (p53, mdr or bcl2): not mediated by p53, mdr or bcl2; tubulin or topoisomerase II mediated [9]: not tubulin or topoisomerase II mediated; Solubility (Solubility; hexane): insoluble; Solubility (Solubility; methanol, chloroform, acetone, acetonitrile, dimethyl sulfoxide, acetonitrile/methanol (1:1)): Soluble; Solubility (Solubility; water): insoluble

**Q.** For `CC1(C)C=Cc2c(ccc3c4c([nH]c23)C(C)(C)C2CC35CCCN3C(=O)C2(C4)NC5=O)O1` (stereo not shown) [Stephacidin A], which IC50 (A2780 ovarian, parental) is on record?
**A.** 4 µM

**Q.** And the IC50 [1]?
**A.** 6.8 µM

**Q.** And the IC50 [2]?
**A.** 3.6 µM

**Q.** And the IC50 [3]?
**A.** 2.1 µM

**Q.** And the IC50 [4]?
**A.** 1 µM

**Q.** What about the IC50 (HCT116 colon, parental) of the same compound?
**A.** 2.1 µM

**Q.** What about the IC50 [5] of the same compound?
**A.** 6.7 µM

**Q.** And the IC50 [6]?
**A.** 13.1 µM

**Q.** What about the IC50 [7] of the same compound?
**A.** 4.2 µM

**Q.** And the IC50 [8]?
**A.** 2.15 µM

**Q.** What about the IC50 (LX-1 lung, sensitive) of the same compound?
**A.** 4.22 µM

**Q.** What about the “in vivo criteria for acceptable activity” value (human tumor cell lines; potency judged against applicant's criteria) of the same compound?
**A.** within our in vivo criteria for acceptable activity

**Q.** And the fold less potent (human tumor cell lines; relative potency in vitro, versus the other stephacidin)?
**A.** 10 fold

**Q.** And the in vitro cytotoxicity (human tumor cell lines; several human tumor cell lines (Table 3))?
**A.** potent in vitro cytotoxicity

**Q.** And the “% of LNCaP Cells in Apoptosis” value (LNCaP cells; 0.1 x 72 hour cytotoxic IC50)?
**A.** 0.02%

**Q.** And the “% of LNCaP Cells in Apoptosis” value (LNCaP cells; 1 x 72 hour cytotoxic IC50)?
**A.** 0.00%

**Q.** And the “% of LNCaP Cells in Apoptosis” value (LNCaP cells; 5 x 72 hour cytotoxic IC50)?
**A.** 0.15%

**Q.** And the “% of LNCaP Cells in Apoptosis” value (LNCaP cells; 10 x 72 hour cytotoxic IC50)?
**A.** 5.75%

**Q.** What about the “% of LNCaP Cells in Apoptosis” value (LNCaP cells; 20 x 72 hour cytotoxic IC50) of the same compound?
**A.** 11.81%

**Q.** What about the induction of apoptosis (LNCaP cells) of the same compound?
**A.** potent inducers of apoptosis

**Q.** And the “% of A2780 Cells in Apoptosis” value (A2780 cells; 0.1 x 72 hour cytotoxic IC50)?
**A.** 1%

**Q.** What about the “% of A2780 Cells in Apoptosis” value (A2780 cells; 1 x 72 hour cytotoxic IC50) of the same compound?
**A.** .8%

**Q.** What about the “% of A2780 Cells in Apoptosis” value (A2780 cells; 5 x 72 hour cytotoxic IC50) of the same compound?
**A.** 21%

**Q.** And the “% of A2780 Cells in Apoptosis” value (A2780 cells; 10 x 72 hour cytotoxic IC50)?
**A.** 14%

**Q.** What about the “% of A2780 Cells in Apoptosis” value (A2780 cells; 20 x 72 hour cytotoxic IC50) of the same compound?
**A.** 15%

**Q.** And the induction of apoptosis (A2780 cells)?
**A.** potent inducers of apoptosis
